Results published in US11596623B2, “Methods for treating virus infection or proliferation” (HOWARD UNIVERSITY, priority 2018, dated 2023).

Experiments:
HSV-1 ICP0 = experiment: Real-time RT-PCR of HSV-1 ICP0 transcript in HEp-2 cells; format: cell-based; conditions: 12 and 24 hpi, versus DMSO
Source text: The total transcript levels were quantified using actin expression as an internal control. The cDNA obtained immediately after the virus and drug transfection(s) was set as a baseline value. The normalized expression values were transformed to the log 10 value. The data plot represents mean t standard error calculated from three replicates.
Following instructions of the manufacturers, total RNA was isolated using Tri Reagent® (Ambion, Inc., Austin, Tex.). To quantitatively examine the mRNA level of HSV-1 ICP0 from the infected cells, real-time RT-PCR was undertaken using the QuantiTect SYBR Green RT-PCR kit (QIAGEN, Valencia, Calif.). […] Fluorescence (captured at 80° C.) was determined to be absent from the signal generated by primer dimers. Data were collected and recorded by the BIORAD CFX Manager software. The relative quantity of the ICP0 transcripts at the indicated time points was normalized to the relative quantity of the reference gene actin at the same time points and then the log10 copy number of the normalized RNA transcripts were calculated and presented on a bar chart. A melting temperature curve analysis was obtained by measuring (after the amplification cycles) the fluorescence during a period of warming from 60° C. to 95° C. […]

RACK1 = target: T1, RACK1 (Homo sapiens, UniProt P63244); experiment: RACK1 protein western in EV-D68 infected HEp-2 cells; format: cell-based; conditions: 48 h
T1 construct: endogenous in cells; host or cells: HEp-2 cells (human laryngeal carcinoma line), virus-infected
Method: HEp-2 cells were grown to 80-90% confluency in Dulbecco's Modified Eagle's medium (DMEM) supplemented with 10% fetal calf serum (FCS) and 1% penicillin-streptomycin (PS) and fungicide. The virus and the indicated concentration of compounds were added and incubated for 48 h. After washing with PBS, the cell lysates were collected and were run in a Biorad XT-Criterion gel and transferred to a PVDF membrane. The membrane was blotted with an antibody directed against the EVD68 major structural protein VP1 purchased from Genetex (Irvine, Calif.). An anti-mouse IgG-HRP secondary antibody and Biorad's Western ECL substrate-Clarity was used to label the bands and the image was obtained in a Biorad Gel doc system. […] The tubulin antibody was used as the loading control.
HEp-2 cells were grown to 80-90% confluency in Dulbecco's Modified Eagle's medium (DMEM) supplemented with 10% fetal calf serum FCS and 1% penicillin-streptomycin (PS) and fungicide. The representative virus (EV-D68) and the indicated concentration of compounds were added and incubated for 48 h. After washing with PBS, the cell lysates were collected and were run in a Biorad XT-Criterion gel and transferred to a PVDF membrane. The membrane was blotted with an antibody directed against the EV-D68 major structural protein VP1 purchased from Genetex (Irvine, Calif.). […]

Row | Compound | ICP0 mRNA level (HSV-1 ICP0) | RACK1 protein level (RACK1)
1 | Nn1c(S)nnc1-c1ccc(F)cc1 [SD-29] | essentially showed the same level of ICP0 mRNA | –
2 | Nn1c(S)nnc1-c1cc(Cl)cc(Cl)c1 [SD29-14] | – | loss of RACK1 protein
